Literature values, collected in patent US20090181887A1, “USE OF A GLP-1 MOLECULE FOR TREATMENT OF BILIARY DYSKINESIA AND/OR BILIARY PAIN/DISCOMFORT” (Gastrotech Pharma A/S, priority 2005, published 2009).
Where no end group is shown, it is not given here.

Settings: in man; Wettergren et al, 1993; Gutniak et al, 1996

glucagon-like peptide-1 (HAEGTFTSDVSSYLEGQAAKEFIAWLVKGR-NH2; ends and bridges not checked; UniProt P01275 98-127, looked up) [GLP-1, gastrointestinal peptide hormone; natural forms GLP-1 (7-36)amide and GLP-1 (7-37)]
slowing of gastric emptying: 50%
